Assay results taken from patent US12600724B2, “Indole alkaloid and preparation method and use thereof” (NANJING UNIVERSITY OF CHINESE MEDICINE, priority 2022, dated 2026).

tested on: primary DRG neuron; assay: Axon growth of primary DRG neurons (immunofluorescence, Neuro J); type: cell-based, C57BL/6J mice; conditions: Mus musculus, 24 hours, multiple of total axon length of a single DRG neuron relative to blank control group
Method: Diabetic peripheral neuropathy involved a sensory neuron first, and a main pathological change was axonal atrophy and degeneration, or even disappearance. […] Therefore, the compounds in the examples were added with the primary DRG neuron to incubate for a certain period of time, then the axon growth of the DRG neuron was detected by immunofluorescence, and an axon length was quantified by Neuro J, so as to evaluate the promotion effect of the compound on the axon growth of the peripheral sensory neuron.
Primary antibodies of mice anti-β-tubulin III used for fluorescent staining were purchased from Sigma Company, cell culture reagents were all purchased from Gibco Company, and DRG neuronal cells were taken from C57BL/6J mice. Specific experimental steps were as follows: fresh DRG of the C57 mice was extracted to digest into a single-cell suspension and then inoculated into a culture plate for adherent culture overnight, with vinblastine as a positive drug, the to-be-detected compounds S1 to S87 ([…]) synthesized in the above examples were given to incubate for 24 hours, then an original culture medium was removed, 4% paraformaldehyde was added into each well to fix for 15 minutes after PBS washing, the mixture was permeabilized with 0.3% TritonX-100 for 5 minutes and sealed at room temperature with 4% BSA for 1 hour, a primary antibody (1:1000) was incubated at 4° C. overnight, a goat anti-mouse fluorescent secondary antibody (1:300) was incubated at room temperature in the dark for 1 hour, and a sealed slide was imaged by a fluorescence microscope (Leica). According to the image, a total axon length of a single DRG neuron was tracked by a Neuro J plug-in in Image J software, and a multiple of the total axon length relative to that of the blank control group was calculated.

| Structure (SMILES) | fold induction at 10 µM |
| --- | --- |
| CC[C@@]12C=C(C(=O)N[C@@H](CC(=O)O)C(=O)O)n3c4c(c5ccccc53)CCN(CCC1)[C@H]42 [Compound S70] | 10.8 |
| CC[C@@]12C=C(C(=O)N[C@@H](CC(N)=O)C(=O)O)n3c4c(c5ccccc53)CCN(CCC1)[C@H]42 [Compound S71] | 10.5 |
| CC[C@@]12C=C(C(=O)N[C@@H](CN)C(=O)O)n3c4c(c5ccccc53)CCN(CCC1)[C@H]42 [Compound S72] | 11.3 |
| CC[C@@]12C=C(C(=O)N[C@@H](C)C(=O)O)n3c4c(c5ccccc53)CCN(CCC1)[C@H]42 [Compound S73] | 12.1 |
| CC[C@@]12C=C(C(=O)N[C@H](C(=O)O)C(C)C)n3c4c(c5ccccc53)CCN(CCC1)[C@H]42 [Compound S74] | 10.9 |
| CC[C@@]12C=C(C(=O)N[C@@H](Cc3ccccc3)C(=O)O)n3c4c(c5ccccc53)CCN(CCC1)[C@H]42 [Compound S75] | 10.7 |
| CC[C@@]12C=C(C(=O)NCC(=O)N[C@@H](CS)C(=O)O)n3c4c(c5ccccc53)CCN(CCC1)[C@H]42 [Compound S76] | 11.1 |
| CC[C@@]12C=C(C(=O)NCC(=O)N[C@@H](CC(N)=O)C(=O)O)n3c4c(c5ccccc53)CCN(CCC1)[C@H]42 [Compound S77] | 10.8 |
| CC[C@@]12C=C(C(=O)NCC(=O)N[C@@H](Cc3ccc(O)cc3)C(=O)O)n3c4c(c5ccccc53)CCN(CCC1)[C@H]42 [Compound S78] | 10.2 |
| CC[C@@]12C=C(C(=O)NCC(=O)N[C@@H](CC(C)C)C(=O)O)n3c4c(c5ccccc53)CCN(CCC1)[C@H]42 [Compound S79] | 10.6 |
| CC[C@@]12C=C(C(=O)NCC(=O)N[C@H](C(=O)O)C(C)C)n3c4c(c5ccccc53)CCN(CCC1)[C@H]42 [Compound S80] | 11.3 |
| CC[C@@]12C=C(C(=O)NCC(=O)N[C@@H](CO)C(=O)O)n3c4c(c5ccccc53)CCN(CCC1)[C@H]42 [Compound S81] | 11.9 |
| CC[C@@]12C=C(C(=O)N[C@@H](C)C(=O)OC)n3c4c(c5ccccc53)CCN(CCC1)[C@H]42 [Compound S82] | 12.5 |
| CC[C@@]12C=C(C(=O)NCC(=O)OC)n3c4c(c5ccccc53)CCN(CCC1)[C@H]42 [Compound S83] | 12.7 |
| CC[C@@]12C=C(C(=O)N[C@H](C(=O)OC)C(C)C)n3c4c(c5ccccc53)CCN(CCC1)[C@H]42 [Compound S84] | 11 |
| CC[C@@]12C=C(C(=O)N[C@@H](CO)C(=O)OC)n3c4c(c5ccccc53)CCN(CCC1)[C@H]42 [Compound S85] | 11.8 |
| CC[C@@]12C=C(C(=O)NCC(=O)N[C@@H](CC(C)C)C(=O)OC)n3c4c(c5ccccc53)CCN(CCC1)[C@H]42 [Compound S86] | 11 |
| CC[C@]12CCCN3CCc4c(n(c5ccccc45)[C@@](O)(C(=O)OC)C1)[C@@H]32 [Vincamine, reference compound] | 9.5 |
